ChEMBL document CHEMBL5042519, “Design and synthesis of marine sesterterpene analogues as novel estrogen receptor α degraders for breast cancer treatment” (Eur J Med Chem, 2022)
Activity calls are given as the source filed them. The calls are words filed in the database; no cut-off is given here.

Legend:
[1] = Antiproliferative activity against human MCF-10A cells assessed as reduction in cell viability after 48 hrs by MTT assay; format: toxicity, cell-based
[2] = Resistance index, ratio of IC50 for antiproliferative activity against human MCF7/ADR cells to IC50 for antiproliferative activity against human MCF7 cells; format: functional
[3] = system: MDA-MB-231; experiment: Antiproliferative activity against human MDA-MB-231 cells assessed as reduction in cell viability after 48 hrs by MTT assay; details: MDA-MB-231, 48 h
[4] = Selectivity index, ratio of IC50 for antiproliferative activity against human MCF-10A cells to IC50 for antiproliferative activity against human MDA-MB-231 cells by MTT assay; format: toxicity, cell-based; details: MCF-10A cells versus MDA-MB-231 cells, read-out: Ratio IC50
[5] = biological target: T1, Estrogen receptor (Homo sapiens) (UniProt P03372); experiment: Induction of ERalpha degradation in human MCF7 cells assessed as decrease in ERalpha protein expression at 0.5 to 3 uM for 24 hrs by Western blot analysis; format: cell-based; details: dose 0.5-3 µM
T1 sequence (whole entry): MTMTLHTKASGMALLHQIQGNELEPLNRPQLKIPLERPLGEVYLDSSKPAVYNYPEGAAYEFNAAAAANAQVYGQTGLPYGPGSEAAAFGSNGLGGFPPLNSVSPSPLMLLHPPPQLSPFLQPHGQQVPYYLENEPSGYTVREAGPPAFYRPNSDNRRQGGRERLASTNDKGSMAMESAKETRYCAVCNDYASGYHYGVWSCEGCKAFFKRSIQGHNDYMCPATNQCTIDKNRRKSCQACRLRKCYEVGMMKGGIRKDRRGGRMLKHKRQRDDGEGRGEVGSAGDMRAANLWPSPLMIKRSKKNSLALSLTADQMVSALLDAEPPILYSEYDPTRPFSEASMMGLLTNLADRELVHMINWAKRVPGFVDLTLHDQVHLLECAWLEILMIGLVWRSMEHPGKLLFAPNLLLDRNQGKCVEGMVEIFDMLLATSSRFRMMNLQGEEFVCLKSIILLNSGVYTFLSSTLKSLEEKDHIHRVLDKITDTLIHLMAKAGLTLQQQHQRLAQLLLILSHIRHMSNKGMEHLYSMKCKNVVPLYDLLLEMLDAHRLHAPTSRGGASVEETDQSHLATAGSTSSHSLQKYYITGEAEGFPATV

[6] = biological target: T1, Estrogen receptor (Homo sapiens); experiment: Induction of ERalpha degradation in human MCF7 cells assessed as decrease in ERalpha protein expression at 3 uM measured upto 24 hrs by Western blot analysis; format: cell-based; details: time hrs <=24, TDE = time-dependent effect
[7] = system: MCF7; experiment: Inhibition of colony formation in human MCF7 cells at 2 uM measured after 9 days by crystal violet staining based assay relative to control; format: functional, cell-based; details: time 9.0 day
[8] = system: MCF7; experiment: Effect on cell morphology in human MCF7 cells assessed as appearance of round cells at 0.5 to 2 uM measured after 24 hrs by Hoechst 33342 staining based fluorescence microscopy; format: functional; details: dose 0.5-2 µM
[9] = system: MCF7; experiment: Induction of apoptosis in human MCF7 cells assessed as early apoptotic cells at 0.5 uM incubated for 24 hrs by annexin-V and PI staining based flow cytometry analysis relative to control; format: functional
[10] = system: MCF7; experiment: Induction of apoptosis in human MCF7 cells assessed as early apoptotic cells at 1 uM incubated for 24 hrs by annexin-V and PI staining based flow cytometry analysis relative to control; format: functional
[11] = system: MCF7; experiment: Induction of apoptosis in human MCF7 cells assessed as early apoptotic cells at 2 uM incubated for 24 hrs by annexin-V and PI staining based flow cytometry analysis relative to control; format: functional
[12] = system: MCF7; experiment: Induction of ROS generation in human MCF7 cells assessed as increase in intracellular ROS level at 0.5 to 2 uM and measured after 24 hrs by DCFH-DA staining based flow cytometry method; format: functional, cell-based; details: dose 0.5-2 µM
[13] = system: MCF7; experiment: Induction of ROS generation in human MCF7 cells assessed as increase in intracellular ROS level at 2 uM measured after 24 hrs by DCFH-DA staining based flow cytometry method (reference value: 19.02%); format: functional
[14] = system: MCF7; experiment: Induction of ROS generation in human MCF7 cells assessed as increase in intracellular ROS level measured after 24 hrs preincubated with NAC by DCFH-DA staining based flow cytometry method; format: functional, cell-based
[15] = system: MCF7; experiment: Induction of mitochondrial membrane potential loss in human MCF7 cells measured after 24 hrs by JC-1 staining based flow cytometry; format: functional, cell-based
[16] = system: MCF7; experiment: Induction of mitochondrial membrane potential loss in human MCF7 cells at 2 uM measured after 24 hrs by JC-1 staining based flow cytometry; format: functional, cell-based
[17] = system: MCF7; experiment: Induction of apoptosis in human MCF7 cells assessed as increase in cytochrome C protein level at 0.5 to 3 uM and measured after 24 hrs Western blot analysis relative to control; format: functional, cell-based; details: dose 0.5-3 µM
[18] = system: MCF7; experiment: Induction of apoptosis in human MCF7 cells assessed as increase in cleaved caspase 3 level at 0.5 to 3 uM and measured after 24 hrs Western blot analysis relative to control; format: functional, cell-based; details: dose 0.5-3 µM
[19] = system: MCF7; experiment: Induction of apoptosis in human MCF7 cells assessed as increase in cleaved caspase 9 level at 0.5 to 3 uM and measured after 24 hrs Western blot analysis relative to control; format: functional, cell-based; details: dose 0.5-3 µM
[20] = system: MCF7; experiment: Cell cycle arrest in human MCF7 cells assessed as decrease in G2/M phase accumulation at 0.5 to 2 uM and measured after 24 hrs by propidium iodide staining based flow cytometry relative to control; format: functional; details: dose 0.5-2 µM
[21] = system: MCF7; experiment: Cell cycle arrest in human MCF7 cells assessed as reduction in cyclin D1 expression at 0.5 to 3 uM and measured after 24 hrs by Western blot analysis; format: functional, cell-based; details: dose 0.5-3 µM
[22] = system: MCF7; experiment: Cell cycle arrest in human MCF7 cells assessed as reduction in CDK4 expression at 0.5 to 3 uM and measured after 24 hrs by Western blot analysis; format: functional, cell-based; details: dose 0.5-3 µM
[23] = Metabolic stability in rat plasma assessed as parent compound remaining incubated for 60 mins in presence of NADPH by UPLC-MS analysis; format: ADME, cell-free; details: read-out: Stability
[24] = Metabolic stability in rat liver microsomes assessed as assessed as intrinsic clearance incubated for 60 mins in presence of NADPH by UPLC-MS analysis; format: ADME, Microsome; details: read-out: CLH
[25] = biological target: T1, Estrogen receptor (Homo sapiens); experiment: Induction of ERalpha degradation in human MCF7 cells assessed as ERalpha level at 3 uM measured after 24 hrs in presence of HyT by Western blot analysis; format: cell-based
[26] = biological target: T1, Estrogen receptor (Homo sapiens); experiment: Induction of ERalpha degradation in human MCF7 cells assessed as ERalpha level at 3 uM measured after 24 hrs in presence of chloroquine by Western blot analysis; format: cell-based
[27] = system: MCF7; experiment: Effect on cell morphology in human MCF7 cells assessed as appearance of apoptotic bodies at 0.5 to 2 uM measured after 24 hrs by Hoechst 33342 staining based fluorescence microscopy; format: functional; details: dose 0.5-2 µM
[28] = system: MCF7; experiment: Cell cycle arrest in human MCF7 cells assessed as accumulation at G1 phase at 0.5 uM measured after 24 hrs by propidium iodide staining based flow cytometry (reference value: 73.45 %); format: functional
[29] = system: MCF7; experiment: Cell cycle arrest in human MCF7 cells assessed as accumulation at G1 phase at 1 uM measured after 24 hrs by propidium iodide staining based flow cytometry (reference value: 73.45 %); format: functional

Structure (SMILES): CC1=CC(=O)[C@H]2/C(C=O)=C\C[C@H]3[C@@H]([C@@H](C)/C=C\C=C/C(=O)OCCOCCOCCOC(=O)CC45CC6CC(CC(C6)C4)C5)CC[C@]3(C)C[C@H]12
- IC50 at 48 h [1]: 2190 nM
- Ratio IC50 [2]: 1.17
- IC50 [3]: 310 nM
- selectivity ratio [4]: 5.34
- Activity [5]: Dose-Dependent Effect
- Activity [6]: Tde
- inhibition [7]: Active
- Activity [8]: Active
- Activity [9]: 6.9%
- Activity [10]: 14.1%
- Activity [11]: 32.3%
- Activity [12]: Dose-Dependent Effect
- Activity [13]: 58.14%
- Activity [14]: inactive
- Activity [15]: Active
- Activity [16]: Active
- Activity [17]: Active
- Activity [18]: Dose-Dependent Effect
- Activity [19]: Dose-Dependent Effect
- Activity [20]: Active
- Activity [21]: Dose-Dependent Effect
- Activity [22]: Dose-Dependent Effect
- remaining at 1 h [23]: 81%
- microsomal CLint [24]: 17.8 µL/min/mg
- Activity [25]: Active
- Activity [26]: Active
- Activity [27]: Active
- Activity [28]: 74.77%
- Activity [29]: 78.07%
